Laboratory results published in patent US20100093776A1, “Organic Compounds and Their Uses” (Novartis AG, priority 2006, published 2010).

Key:
[1] = system: neointima formation; conditions: rats; cited from earlier work
[2] = molecular target: T1, CDK1/cyclinB (Homo sapiens, UniProt P06493); assay: CDK1/cyclinB IMAP fluorescence polarization kinase assay; type: biochemical; conditions: 52 μM ATP, two hours at room temperature
T1 construct: purchased Millipore
Procedure: (§1) Kinase assays were performed on recombinant purified enzymes using the non-radioactive IMAP fluorescence polarization assay format.
(§2) Compound stocks were prepared and diluted in DMSO and were added to kinase reactions at a 1/100 dilution for a final concentration of 1% DMSO. The components were added together to final concentrations listed in the tables below and incubated for two hours at room temperature.
(§3) The reactions were stopped by addition of stop solution.
(§4) CDK9/CDK1/CDK7: final stop concentration is 1× Developer buffer (85% A/15% B), IMAP beads 1/400
(§5) The samples were allowed to incubate for one more hour at room temperature and then the fluorescence polarization was measured. The plate normalized millipolarization (mP) values were plotted against the log of compound concentration for each compound and IC50 values were calculated using the spotfire IC50 calculator and confirmed by visual analysis.

[3] = molecular target: CDK4 (Homo sapiens, UniProt P11802); assay: CDK4 kinase assay (IMAP fluorescence polarization); type: biochemical
Sequence of CDK4 (P11802 whole entry, species assumed): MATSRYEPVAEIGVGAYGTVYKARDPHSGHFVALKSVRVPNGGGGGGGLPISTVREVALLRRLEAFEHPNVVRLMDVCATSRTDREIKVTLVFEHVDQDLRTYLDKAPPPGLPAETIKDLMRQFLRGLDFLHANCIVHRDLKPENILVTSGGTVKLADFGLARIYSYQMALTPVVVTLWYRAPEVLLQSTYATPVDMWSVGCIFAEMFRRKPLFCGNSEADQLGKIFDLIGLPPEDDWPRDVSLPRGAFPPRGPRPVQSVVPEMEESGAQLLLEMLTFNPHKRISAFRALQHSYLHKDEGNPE
Sequence of CDK4 (P24385 whole entry partner, species assumed): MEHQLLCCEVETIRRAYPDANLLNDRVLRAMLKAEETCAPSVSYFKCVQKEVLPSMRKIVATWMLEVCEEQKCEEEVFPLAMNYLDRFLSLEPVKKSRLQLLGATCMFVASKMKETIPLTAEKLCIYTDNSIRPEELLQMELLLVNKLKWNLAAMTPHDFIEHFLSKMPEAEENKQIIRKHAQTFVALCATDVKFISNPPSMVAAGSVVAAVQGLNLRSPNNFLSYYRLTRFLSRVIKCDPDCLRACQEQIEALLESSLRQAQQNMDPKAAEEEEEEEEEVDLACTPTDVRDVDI
Procedure: as §1, §2, §5

[4] = molecular target: CDK5 (Homo sapiens, UniProt Q00535); assay: CDK5 kinase assay (IMAP fluorescence polarization); type: biochemical
Sequence of CDK5 (Q00535 whole entry, species assumed): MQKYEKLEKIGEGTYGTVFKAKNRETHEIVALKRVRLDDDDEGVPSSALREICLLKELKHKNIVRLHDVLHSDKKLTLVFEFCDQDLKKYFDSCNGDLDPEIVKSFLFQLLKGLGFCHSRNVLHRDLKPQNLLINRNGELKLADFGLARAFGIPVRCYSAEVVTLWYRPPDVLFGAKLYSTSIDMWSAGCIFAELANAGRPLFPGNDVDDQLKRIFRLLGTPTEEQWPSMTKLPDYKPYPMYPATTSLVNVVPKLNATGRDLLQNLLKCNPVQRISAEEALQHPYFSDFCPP
Sequence of CDK5 (Q15078 whole entry partner, species assumed): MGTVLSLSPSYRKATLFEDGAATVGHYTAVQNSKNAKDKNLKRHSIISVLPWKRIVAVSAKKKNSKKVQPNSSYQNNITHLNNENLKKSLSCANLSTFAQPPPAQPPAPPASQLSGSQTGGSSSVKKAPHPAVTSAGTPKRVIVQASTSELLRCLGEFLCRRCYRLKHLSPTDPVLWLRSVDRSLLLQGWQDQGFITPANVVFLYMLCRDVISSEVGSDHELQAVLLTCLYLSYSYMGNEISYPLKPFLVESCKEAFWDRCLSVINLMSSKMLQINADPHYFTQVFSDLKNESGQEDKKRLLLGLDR
Procedure: as §1, §2, §5

[5] = molecular target: T2, CDK7/cyclinH/MAT1 (Homo sapiens, UniProt P50613); assay: CDK7/cyclinH/Mat1 IMAP fluorescence polarization kinase assay; type: biochemical; conditions: 8.09 μM ATP, two hours at room temperature
T2 construct: purchased Millipore
T2 sequence (P50613 whole entry): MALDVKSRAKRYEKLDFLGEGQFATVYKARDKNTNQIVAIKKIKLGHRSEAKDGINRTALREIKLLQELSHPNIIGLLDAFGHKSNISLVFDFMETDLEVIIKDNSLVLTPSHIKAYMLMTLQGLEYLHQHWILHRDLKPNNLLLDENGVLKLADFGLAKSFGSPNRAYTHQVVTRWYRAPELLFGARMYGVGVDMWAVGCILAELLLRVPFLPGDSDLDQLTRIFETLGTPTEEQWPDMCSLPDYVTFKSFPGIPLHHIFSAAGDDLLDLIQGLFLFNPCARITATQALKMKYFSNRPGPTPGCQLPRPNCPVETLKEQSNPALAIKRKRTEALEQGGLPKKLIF
T2 sequence (P51946 whole entry partner): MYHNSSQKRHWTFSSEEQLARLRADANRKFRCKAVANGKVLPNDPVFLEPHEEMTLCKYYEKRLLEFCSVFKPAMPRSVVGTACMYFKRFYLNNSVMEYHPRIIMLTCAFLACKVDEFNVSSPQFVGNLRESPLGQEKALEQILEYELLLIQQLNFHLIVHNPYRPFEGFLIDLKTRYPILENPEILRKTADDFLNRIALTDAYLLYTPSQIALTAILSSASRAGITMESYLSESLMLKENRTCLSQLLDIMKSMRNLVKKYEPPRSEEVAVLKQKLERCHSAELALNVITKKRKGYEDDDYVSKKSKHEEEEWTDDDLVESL
T2 sequence (P51948 whole entry partner): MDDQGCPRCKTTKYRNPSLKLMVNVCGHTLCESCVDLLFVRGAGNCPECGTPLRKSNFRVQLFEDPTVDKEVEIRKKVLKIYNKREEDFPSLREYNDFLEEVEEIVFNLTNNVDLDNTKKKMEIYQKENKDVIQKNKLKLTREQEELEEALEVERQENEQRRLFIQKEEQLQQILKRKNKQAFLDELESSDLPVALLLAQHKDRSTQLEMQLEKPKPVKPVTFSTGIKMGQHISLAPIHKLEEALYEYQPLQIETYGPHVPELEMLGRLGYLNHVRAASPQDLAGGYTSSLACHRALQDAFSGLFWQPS
Procedure: as §1, §2, §3, §4, §5

[6] = molecular target: T3, CDK9/cyclinT1 (Homo sapiens, UniProt P50750); assay: CDK9/cyclinT1 IMAP fluorescence polarization kinase assay; type: biochemical; conditions: 6 μM ATP, two hours at room temperature
T3 construct: purchased Millipore
T3 sequence (P50750 whole entry): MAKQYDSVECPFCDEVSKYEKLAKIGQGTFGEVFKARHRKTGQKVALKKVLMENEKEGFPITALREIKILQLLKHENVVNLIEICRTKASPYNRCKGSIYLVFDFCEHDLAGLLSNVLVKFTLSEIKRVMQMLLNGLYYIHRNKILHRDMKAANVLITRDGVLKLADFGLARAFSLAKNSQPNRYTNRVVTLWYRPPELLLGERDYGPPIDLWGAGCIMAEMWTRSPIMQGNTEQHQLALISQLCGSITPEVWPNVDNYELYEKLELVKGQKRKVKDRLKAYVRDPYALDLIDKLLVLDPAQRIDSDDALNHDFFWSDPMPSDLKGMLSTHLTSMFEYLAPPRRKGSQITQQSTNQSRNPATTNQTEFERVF
T3 sequence (O60563 whole entry partner): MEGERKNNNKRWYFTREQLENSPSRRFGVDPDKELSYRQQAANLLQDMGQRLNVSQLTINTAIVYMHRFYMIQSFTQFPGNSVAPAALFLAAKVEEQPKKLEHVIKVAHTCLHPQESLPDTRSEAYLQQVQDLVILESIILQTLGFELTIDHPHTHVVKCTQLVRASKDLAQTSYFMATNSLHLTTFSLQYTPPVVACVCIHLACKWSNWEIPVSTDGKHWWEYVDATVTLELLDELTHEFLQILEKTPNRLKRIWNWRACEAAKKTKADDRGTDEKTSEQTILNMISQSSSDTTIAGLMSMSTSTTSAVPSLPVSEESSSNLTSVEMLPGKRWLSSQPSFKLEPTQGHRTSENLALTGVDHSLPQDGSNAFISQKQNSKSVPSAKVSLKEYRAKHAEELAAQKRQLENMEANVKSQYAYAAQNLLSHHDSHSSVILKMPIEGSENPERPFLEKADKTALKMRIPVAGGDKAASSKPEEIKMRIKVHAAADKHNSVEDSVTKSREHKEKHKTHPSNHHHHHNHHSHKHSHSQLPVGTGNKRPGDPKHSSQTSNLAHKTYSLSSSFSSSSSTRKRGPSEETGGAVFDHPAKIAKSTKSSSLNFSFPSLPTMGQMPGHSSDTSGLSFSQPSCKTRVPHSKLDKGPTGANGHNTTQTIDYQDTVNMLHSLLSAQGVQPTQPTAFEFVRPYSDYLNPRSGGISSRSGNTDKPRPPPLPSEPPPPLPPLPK
Procedure: as §1, §2, §3, §4, §5

[7] = system: RNA polymerase II CTD serine2 phosphorylation in Hep3B cells; assay: H5 (Ser2) Ab High Content Screen: RNA polymerase II CTD serine2 phosphorylation Assay; type: cell-based; conditions: Homo sapiens, compounds for 2 hours, H5 antibody nuclear staining
Procedure: H5 (also referred as Ser2) Ab High Content Screen: RNA polymerase II CTD serine2 phosphorylation Assay
1. Cells are plated into 384 well plates: 30 μl of Hep3B cells (4,000 cells/30 μl) in DMEM with 3% FBS are plated into wells of a tissue culture treated clear bottomed 384 well plate. Cells are allowed to adhere during an overnight incubation.
2. Cells are treated with compounds for two hours: 10 μl of DMEM with 3% FBS is added to each well with a final concentration of DMSO equal to 1%. Cells are incubated with compounds for 2 hours.
3. Cells are fixed and permeabilized. Cells are washed with 30 mM HEPES pH=7.3 then fixed in 4% paraformaldehyde in 30 mM HEPES pH=7.3 for one hour at room temperature. The fix is removed by washing the cells with Tris buffered saline (TBS) and the cells are permeabilized by incubation in TBS with 0.5% triton X-100 for 30 minutes at room temperature. Triton is removed by washing the cells with TBS.
4. Cells are stained with H5 monoclonal antibody and nuclei are stained with Hoechst dye 33342: Block cells by incubating in TBS with 1% Bovine serum albumin (BSA) for one hour at room temperature. Incubate primary H5 Ab (1/250) overnight at 4 degrees in PBS with 1% BSA and 0.1% Tween-20. The next day wash cells with TBS. Add secondary antibody, anti-IgM labeled with cy5 (1/450), and Hoecsht dye 33342 (10 μg/ml) in TBS with 1% BSA and incubate one hour at room temperature. Wash cells with PBS.
5. Measure staining using the In-cell Analyzer system from GE Healthcare. Nuclei were located using the Hoecsht 33342 dye signal and H5 Antibody staining was quantified by measuring cy5 label. Nuclear intensity of H5 staining was plotted against the log of compound concentration for each compound and IC-50 values were calculated using the spotfire IC-50 calculator and confirmed by visual analysis.

[8] = molecular target: T4, CDK2/cyclinA (Homo sapiens, UniProt P24941); assay: CDK2/cyclinA IMAP fluorescence polarization kinase assay; type: biochemical; conditions: 4.68 μM ATP, two hours at room temperature
T4 construct: purchased Millipore
Procedure: as §1, §2, §3
CDK2: final stop concentration is 1× Developer buffer (100% A), IMAP beads 1/400
as §5

T1 sequence (P06493 whole entry): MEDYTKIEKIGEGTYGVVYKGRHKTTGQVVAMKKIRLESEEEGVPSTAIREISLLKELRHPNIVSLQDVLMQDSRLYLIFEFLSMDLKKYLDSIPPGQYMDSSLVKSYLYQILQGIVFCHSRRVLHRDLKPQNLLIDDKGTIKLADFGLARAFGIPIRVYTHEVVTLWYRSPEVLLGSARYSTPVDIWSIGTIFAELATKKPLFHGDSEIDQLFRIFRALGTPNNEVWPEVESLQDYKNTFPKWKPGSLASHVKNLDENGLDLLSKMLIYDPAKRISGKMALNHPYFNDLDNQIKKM
T1 sequence (P14635 whole entry partner): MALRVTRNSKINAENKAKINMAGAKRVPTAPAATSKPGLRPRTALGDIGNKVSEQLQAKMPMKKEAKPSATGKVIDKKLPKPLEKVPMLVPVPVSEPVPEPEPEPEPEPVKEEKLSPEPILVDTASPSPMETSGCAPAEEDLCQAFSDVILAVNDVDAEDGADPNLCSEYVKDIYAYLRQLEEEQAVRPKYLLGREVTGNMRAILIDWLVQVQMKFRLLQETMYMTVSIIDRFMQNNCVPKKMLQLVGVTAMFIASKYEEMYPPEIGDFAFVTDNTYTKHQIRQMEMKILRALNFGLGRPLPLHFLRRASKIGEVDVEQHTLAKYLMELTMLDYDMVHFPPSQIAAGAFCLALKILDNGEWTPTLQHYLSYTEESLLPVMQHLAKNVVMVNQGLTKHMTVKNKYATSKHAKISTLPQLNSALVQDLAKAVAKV

**Q.** With `COc1ccc(CNc2nc(N(CCO)CCO)nc3c2ncn3C(C)C)cc1` [CVT-313] as the compound, how does the “inhibition of neointima formation” value [1] read?
**A.** greater than 80%

**Q.** Which IC50 [2] does the source give for `Clc1cccc(Nc2nccc(-c3cccc4[nH]ccc34)n2)c1` [Compound 1, (3-Chloro-phenyl)-[4-(1H-indol-4-yl)-pyrimidin-2-yl]-amine] here?
**A.** < 5 µM

**Q.** And the IC50 [3]?
**A.** 5 to 15 µM

**Q.** And the IC50 [4]?
**A.** < 5 µM

**Q.** What about the IC50 [5] of the same compound?
**A.** > 50 µM

**Q.** What about the IC50 [6] of the same compound?
**A.** < 5 µM

**Q.** What about the IC50 [7] of the same compound?
**A.** < 5 µM

**Q.** With `CS(=O)(=O)c1cccc(Nc2nccc(-c3cccc4[nH]ccc34)n2)c1` [Compound 2, [4-(1H-Indol-4-yl)-pyrimidin-2-yl]-(3-methanesulfonyl-phenyl)-amine] as the compound, how does the IC50 [2] read?
**A.** < 5 µM

**Q.** What about the IC50 [8] of the same compound?
**A.** < 5 µM

**Q.** And the IC50 [3]?
**A.** < 5 µM

**Q.** And the IC50 [4]?
**A.** < 5 µM

**Q.** And the IC50 [5]?
**A.** < 5 µM

**Q.** And the IC50 [6]?
**A.** < 5 µM

**Q.** What about the IC50 [7] of the same compound?
**A.** < 5 µM

**Q.** Which results are given for `Clc1cccc(Nc2nccc(-c3cccc4c3ccn4CCN3CCOCC3)n2)c1` [Compound 9, (3-Chloro-phenyl)-{4-[1-(2-morpholin-4-yl-ethyl)-1H-indol-4-yl]-pyrimidin-2-yl}-amine]?
**A.** IC50 [2]: > 50 µM; IC50 [8]: 5 to 15 µM; IC50 [6]: < 5 µM; IC50 [7]: 15 to 50 µM

**Q.** With `CCNC(=O)Cn1ccc2c(-c3ccnc(Nc4cccc(Cl)c4)n3)cccc21` [Compound 13, 2-{4-[2-(3-Chloro-phenylamino)-pyrimidin-4-yl]-indol-1-yl}-N-ethyl-acetamide] as the compound, how does the IC50 [2] read?
**A.** > 50 µM

**Q.** What about the IC50 [5] of the same compound?
**A.** > 50 µM

**Q.** And the IC50 [6]?
**A.** < 5 µM

**Q.** And the IC50 [7]?
**A.** < 5 µM

**Q.** Which results are given for `Cc1cnc(Nc2cccc(S(C)(=O)=O)c2)nc1-c1cccc2[nH]ccc12` [Compound 31, [4-(1H-Indol-4-yl)-5-methyl-pyrimidin-2-yl]-(3-methanesulfonyl-phenyl)-amine]?
**A.** IC50 [2]: < 5 µM; IC50 [8]: < 5 µM; IC50 [3]: 5 to 15 µM; IC50 [4]: < 5 µM; IC50 [5]: < 5 µM; IC50 [6]: < 5 µM; IC50 [7]: < 5 µM

**Q.** Which IC50 [2] does the source give for `Cc1cnc(Nc2cccc(S(N)(=O)=O)c2)nc1-c1cccc2[nH]ccc12` [Compound 32, 3-[4-(1H-Indol-4-yl)-5-methyl-pyrimidin-2-ylamino]-benzenesulfonamide] here?
**A.** < 5 µM

**Q.** And the IC50 [8]?
**A.** < 5 µM

**Q.** And the IC50 [3]?
**A.** < 5 µM

**Q.** And the IC50 [4]?
**A.** < 5 µM

**Q.** And the IC50 [6]?
**A.** < 5 µM

**Q.** What does the source list for `Cc1ccc2[nH]ccc2c1-c1ccnc(Nc2cccc(S(C)(=O)=O)c2)n1` [Compound 35, (3-Methanesulfonyl-phenyl)-[4-(5-methyl-1H-indol-4-yl)-pyrimidin-2-yl]-amine]?
**A.** IC50 [2]: < 5 µM; IC50 [8]: < 5 µM; IC50 [3]: 5 to 15 µM; IC50 [4]: < 5 µM; IC50 [6]: < 5 µM
